Test results taken from US20250009924A1, “Indane Derivatives for Malodor Counteraction” (Firmenich SA, priority 2015, published 2025).

Legend:
[1] = tested on: indole-responsive olfactory sensory neurons; assay: Ca2+ imaging of olfactory sensory neurons, antagonist screening against indole; type: cell-based; conditions: 25 μM indole + 125 μM MOC compound as binary mixture; percentage of malodor-responsive OSN population inhibited by more than 10% (modulation values less than −10%)
Description: (§1) Identification of malodor-sensitive olfactory neurons was performed as previously described in WO 2014/210582. Identification of antagonist compounds that inhibit the response of malodor-sensitive olfactory neurons to the target malodor was performed according to Kajiya et al (2001) (K. Kajiya, et al in The Journal of Neuroscience, (2001) 21, 6018-6025).
(§2) Olfactory sensory neurons were stimulated with 25 μM indole (MO) and 125 μM MOC either alone or as a binary mixture. By comparing the peak value of the calcium-induced fluorescence ratio change induced by exposure to the target MO compound to that of the mixture of MO+MOC candidate, a “modulation value” was calculated. The larger the difference between the two peak values, the greater the magnitude of the modulation value. If the peak value for the MO was larger than that of the MO+MOC, the modulation value was negative, whilst the inverse produced positive modulation values. A modulation value was calculated for each cell responding to the positive-control stimulus forskolin (Pos) and the MO compound, but not to the negative-control buffer stimulus (Neg). For each candidate MOC compound, a baseline ‘modulation value’ was obtained by repeated stimulations of olfactory neurons with indole alone (left box plot in B, D, F). The percentage of target malodor-responsive cells with negative modulation values less than −10% was plotted on a bar chart. Population data are represented as box plots, where the interquartile range (25-75th percentiles) of olfactory sensory neuron modulation is contained within the box, with the median indicated by the black bar and the 95th percentile by the arms.
Olfactory sensory neurons were stimulated with 25 μM indole malodor and 125 μM candidate MOC compound as a binary mixture.

[2] = tested on: DMTS OSNs (olfactory sensory neurons); assay: Ca2+ imaging of olfactory sensory neurons, antagonist screening against dimethyl trisulfide (DMTS); type: cell-based; conditions: 50 μM DMTS + 250 μM MOC compound as binary mixture; percentage of malodor-responsive OSN population inhibited by more than 10%
Description: as §1, §2
Olfactory sensory neurons were stimulated with 50 μM DMTS malodor and 250 μM candidate MOC compound as a binary mixture.

[3] = tested on: Skatole OSNs (olfactory sensory neurons); assay: Ca2+ imaging of olfactory sensory neurons, antagonist screening against skatole; type: cell-based; conditions: 50 μM skatole + 250 μM MOC compound as binary mixture; percentage of malodor-responsive OSN population inhibited by more than 10%
Description: as §1, §2
Olfactory sensory neurons were stimulated with 50 μM skatole malodor and 250 μM candidate MOC compound as a binary mixture.

[4] = Air dilution olfactometry sensory panel, indole vs indole + compound; type: in vivo, human; parameters: key to Freshness score: linear labeled scale, no freshness to very fresh; key to Animal/Fecal/Tar score: linear labeled scale, no to very animal/fecal/tar; key to Pleasantness score: linear labeled scale, very unpleasant to very pleasant; conditions: for Freshness score / Pleasantness score / Animal/Fecal/Tar score: indole + compound at individualized iso-intense concentrations; for Freshness score: indole alone 2.2 ± 0.2; for Pleasantness score: indole alone 2.6 ± 0.2; for Animal/Fecal/Tar score: linear labeled scale, indole alone 6.9 ± 0.2; for Animal/Fecal/Tar Reduction: indole + compound vs indole alone, iso-intense levels
Description: Air dilution olfactometry was used to measure all psychophysical data of individual and mixed odorants. Odorized flows of air with precisely set concentrations were prepared by the evaporation of a known flux of odorant in a determined flow of air. The flux of odorant was delivered through a microsyringe operated by a calibrated micromotor into a heated vessel under a steady nitrogen flow. The odorant was vaporized and swept away by the nitrogen, and this primary flow was later diluted with humidified air to the desired concentration. Odorants can be presented one by one in olfactometers (see as a reference “Multidimensional visualization of physical and perceptual data leading to a creative approach in fragrance development”, C. Vuilleumier, M. van de Waal, H. Fontannaz, I. Cayeux and P. A. Rebetez, in Perfumer & Flavourist, 33, 55 (2008)); alternatively, a machine blending up to 12 flows of odorants in variable and adjustable proportions could be used. A sniffing outlet delivered a continuous and adjustable odorized air flow. The upper working limit was determined by the vapor pressure of the odorants at room temperature. The odorized flow was delivered at a temperature of 26° C., close to the temperature within the nose. The combination of air (540 l/h) and nitrogen (60 l/h) represented a total gas flow of 600 l/h with a relative humidity of 50%. The speed of injection of the solutions in the evaporation chamber was modulated and controlled for each subject and adjusted to obtain a medium perceived intensity (see above reference, for instance FIG. 4).
Standardized psychophysical procedures were used to determine olfactory detection thresholds (triangle testing) or perceived intensity, after a training period (see above reference).
A method was designed as an iterative process to obtain dose-response relationship and odor detection threshold of perfumery ingredients or malodorants with a minimum number of experiments (see FIG. 5 in the above reference).
FIG. 2 reports the radar plot of indole alone and indole+compound 1 obtained with a panel of 13 persons using a sensory protocol to evaluate the potential antagonists versus indole. The protocol involves two steps: • Step 1: the participants evaluated the tested ingredients and indole independently to adjust their individualized concentrations by changing the rate of injection (see above description and reference) to elicit a medium intensity perception for each chemical. These concentrations, corresponding to iso-intense levels, were applied in the second step of the process. The range of concentrations to be submitted to subjects was determined from dose-response relationships for the selected ingredients and indole. In the present experiment the molar ratio Compound 1/indole varied according to the individuals from about 1/1 to 10/1 (typical preferred individual range is between 2.5/1 and 4.5/1). • Step 2: Blind sensory evaluations were set; no information was disclosed to the participants on the submitted odorous stimuli. The subjects had to evaluate first indole alone at its individualized concentration and rate the following three descriptors on a linear labeled scale: • Pleasantness (From «Very unpleasant» to «Very pleasant») • Freshness (From «No Freshness» to «Very fresh») • Malodor character: Animal/Fecal/Tar (From «No . . . » to «Very . . . »)
The next submission, 30 seconds after the previous one to avoid odor adaptation, involved the simultaneous injection of indole and of the tested ingredient at individualized concentrations. The same descriptors were rated.

[5] = Binary mixtures of lily-of-the-valley odorants with malodor, perception of fecal and animal note; conditions: the fecal and animal note remains clearly perceptible

Structure (SMILES) | Proportion of Indole OSNs [1] [%] | Freshness score [4] | Pleasantness score [4] | Animal/Fecal/Tar score [4] | Animal/Fecal/Tar Reduction [4] [percentage] | further results
Cc1ccc2c(c1)CCC(C)(CO)C2 (stereo not drawn) [Compound 7, (2,6-dimethyl-1,2,3,4-tetrahydro-2-naphthalenyl)methanol] | 54 |  |  |  |  | 
CCc1ccc2c(c1)CC(C)(CO)C2 (stereo not drawn) [Compound 8, 5-ethyl-2-methyl-2-indanmethanol] | 30 |  |  |  |  | 
CC(=O)OCC1(C)Cc2ccc(C)cc2C1 (stereo not drawn) [Compound 10, (2,5-dimethyl-2-indanyl)methyl acetate] | 42 |  |  |  |  | 
CC(=O)C1(C)Cc2ccc(C)cc2C1 (stereo not drawn) [Compound 6, 1-(2,5-dimethyl-2,3-dihydro-1H-inden-2-yl)ethanone] | 69 | 5.2 ± 1.6 | 5.8 ± 1.4 | 2.2 ± 1.2 | 68 | Proportion of DTMS OSNs [2]: 94%; Proportion of Skatole OSNs [3]: 92%
CC(C)c1ccc2c(c1)CC(C)(CO)C2 (stereo not drawn) [Compound 12, 5-isopropyl-2-methyl-2-indanmethanol] | 57 |  |  |  |  | 
CC1(CO)Cc2ccc(C(C)(C)C)cc2C1 (stereo not drawn) [Compound 13, 5-tert-butyl-2-methyl-2-indanmethanol] | 54 |  |  |  |  | 
COc1ccc2c(c1)CC(C)(CO)C2 (stereo not drawn) [Compound 17, (5-methoxy-2-methyl-2,3-dihydro-1H-inden-2-yl)methanol] | 23 |  |  |  |  | 
Cc1cc2c(cc1C)CC(C)(CO)C2 [Compound 14, 2,5,6-trimethyl-2-indanmethanol] | 20 |  |  |  |  | 
CC(C=O)Cc1ccc(C(C)(C)C)cc1 (stereo not drawn) [3-(4-tert-butylphenyl)-2-methylpropanal] |  |  |  |  |  | malodor reduction (reduction of the negative odor character) [5]: fail to produce such malodor reduction
CC(=O)OCC1(C)Cc2ccccc2C1 [Compound 5, (2-methyl-2,3-dihydro-1H-inden-2-yl)methyl acetate] | 77 | 5.2 ± 1.2 | 5.7 ± 1.1 | 2.7 ± 1.0 | 61 | Proportion of DTMS OSNs [2]: 82%; Proportion of Skatole OSNs [3]: 87%
CCC1(CO)Cc2ccc(C)cc2C1 (stereo not drawn) [Compound 11, 2-ethyl-5-methyl-2-indanmethanol] | 35 |  |  |  |  | 
Cc1cc(C)c2c(c1)CC(C)(CO)C2 (stereo not drawn) [Compound 16, (2,4,6-trimethyl-2,3-dihydro-1H-inden-2-yl)methanol] | 14 | 6.2 ± 1.6 | 6.4 ± 1.3 | 2.6 ± 1.4 | 62 | 
CC1(CO)Cc2ccccc2C1 [Compound 3, (2-methyl-2,3-dihydro-1H-inden-2-yl)methanol] | 41 | 5.2 ± 1.5 | 6.0 ± 1.4 | 3.1 ± 1.3 | 55 | 
Cc1ccc2c(c1C)CC(C)(CO)C2 (stereo not drawn) [Compound 9, (2,4,5-trimethyl-2,3-dihydro-1H-inden-2-yl)methanol] | 78 |  |  |  |  | 
COCC1(C)Cc2ccc(C)cc2C1 (stereo not drawn) [Compound 2, (2,5-dimethyl-2,3-dihydro-1H-inden-2-yl)methyl methyl ether] | 43 | 4.7 ± 1.3 | 3.9 ± 0.8 | 3.5 ± 1.5 | 50 | 
CC(C)(C)c1ccc(CCC=O)cc1 [3-(4-tert-butylphenyl)propanal] |  |  |  |  |  | malodor reduction (reduction of the negative odor character) [5]: fail to produce such malodor reduction
CC1(C)CCc2ccc(CCC=O)cc21 [3-(3,3-dimethyl-2,3-dihydro-1h-inden-5-yl)propanal] |  |  |  |  |  | malodor reduction (reduction of the negative odor character) [5]: fail to produce such malodor reduction
Cc1cccc2c1CC(C)(CO)C2 (stereo not drawn) [Compound 15, 2,4-dimethyl-2-indanmethanol] | 17 |  |  |  |  | 
Cc1ccc2c(c1)CC(CO)C2 (stereo not drawn) [Compound 4, (5-methyl-2,3-dihydro-1H-inden-2-yl)methanol] | 41 | 6.6 ± 1.5 | 7.2 ± 1.2 | 2.1 ± 1.1 | 70 | 
Cc1ccc2c(c1)CC(C)(CO)C2 (stereo not drawn) [Compound 1, 2,5-dimethyl-2-indanemethanol] | 56 | 6.7 ± 0.9 | 7.8 ± 0.7 | 1.3 ± 0.5 | 81 | Proportion of DTMS OSNs [2]: 69%; Proportion of Skatole OSNs [3]: 82%
